Consider 4 compounds from US20260115144A1, “THERAPEUTIC NANOPARTICLES ENCAPSULATING TERPENOIDS AND/OR CANNABINOIDS” (priority 2018, published 2026).

The target in one data set is T1, TRPV1 receptors (Rattus norvegicus, UniProt O35433).
T1 construct: expressed in transfected cells; host or cells: HEK TRPV1 cells (Helen Turner lab, Chaminade University of Honolulu), kept under geneticin
Put plainly: Calcium signaling assay (Fluo-4) in HEK TRPV1 cells. The class given is cell-based. The settings on record: 40 μg/ml, 1 h.

The conditions of data set [1]: cited from earlier work.
For another data set, the target named is TRPV1 (Homo sapiens, UniProt Q8NER1). The settings on record: described in PCT/US2018/033956; cited from earlier work.
Data set [2] in a line: Loss of myrcene during lyophilization for 24 h (weighing). The class given is physicochemical. As to conditions: lyophilized for 24 h; starting weight 8 or 48 mg. As to the method: To investigate whether myrcene is lost during lyophilization, 3 samples of either free myrcene, a mixture of myrcene and water, or a mixture of myrcene, water and PLGA were prepared in duplicate as illustrated in Table 16. Samples were lyophilized for 24 h. The vials containing the samples were weighed before and after lyophilization to calculate the weight of the dried sample.

T1 sequence (O35433 whole entry): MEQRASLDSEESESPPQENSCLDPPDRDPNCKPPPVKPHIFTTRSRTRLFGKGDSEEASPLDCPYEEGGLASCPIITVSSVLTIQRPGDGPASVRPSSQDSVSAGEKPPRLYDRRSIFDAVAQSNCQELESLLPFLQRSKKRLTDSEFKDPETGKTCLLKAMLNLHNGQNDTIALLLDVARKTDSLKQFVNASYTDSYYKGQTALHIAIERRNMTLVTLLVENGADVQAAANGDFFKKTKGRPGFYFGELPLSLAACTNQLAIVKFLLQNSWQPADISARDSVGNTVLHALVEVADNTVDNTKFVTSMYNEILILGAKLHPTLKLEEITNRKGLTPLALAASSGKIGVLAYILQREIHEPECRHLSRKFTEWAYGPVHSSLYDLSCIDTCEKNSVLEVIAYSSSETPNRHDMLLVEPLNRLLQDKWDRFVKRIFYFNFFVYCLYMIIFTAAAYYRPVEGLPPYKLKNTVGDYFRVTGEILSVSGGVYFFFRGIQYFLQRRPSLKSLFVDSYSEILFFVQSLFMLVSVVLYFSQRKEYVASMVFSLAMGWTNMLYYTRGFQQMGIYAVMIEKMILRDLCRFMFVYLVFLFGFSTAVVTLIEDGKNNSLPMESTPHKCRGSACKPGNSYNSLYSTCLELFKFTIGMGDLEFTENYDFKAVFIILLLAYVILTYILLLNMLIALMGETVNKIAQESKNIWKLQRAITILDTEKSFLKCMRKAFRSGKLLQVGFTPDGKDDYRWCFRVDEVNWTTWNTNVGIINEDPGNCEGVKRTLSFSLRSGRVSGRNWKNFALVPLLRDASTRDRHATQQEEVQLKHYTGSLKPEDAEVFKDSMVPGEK
TRPV1, sequence (Q8NER1 whole entry, species assumed): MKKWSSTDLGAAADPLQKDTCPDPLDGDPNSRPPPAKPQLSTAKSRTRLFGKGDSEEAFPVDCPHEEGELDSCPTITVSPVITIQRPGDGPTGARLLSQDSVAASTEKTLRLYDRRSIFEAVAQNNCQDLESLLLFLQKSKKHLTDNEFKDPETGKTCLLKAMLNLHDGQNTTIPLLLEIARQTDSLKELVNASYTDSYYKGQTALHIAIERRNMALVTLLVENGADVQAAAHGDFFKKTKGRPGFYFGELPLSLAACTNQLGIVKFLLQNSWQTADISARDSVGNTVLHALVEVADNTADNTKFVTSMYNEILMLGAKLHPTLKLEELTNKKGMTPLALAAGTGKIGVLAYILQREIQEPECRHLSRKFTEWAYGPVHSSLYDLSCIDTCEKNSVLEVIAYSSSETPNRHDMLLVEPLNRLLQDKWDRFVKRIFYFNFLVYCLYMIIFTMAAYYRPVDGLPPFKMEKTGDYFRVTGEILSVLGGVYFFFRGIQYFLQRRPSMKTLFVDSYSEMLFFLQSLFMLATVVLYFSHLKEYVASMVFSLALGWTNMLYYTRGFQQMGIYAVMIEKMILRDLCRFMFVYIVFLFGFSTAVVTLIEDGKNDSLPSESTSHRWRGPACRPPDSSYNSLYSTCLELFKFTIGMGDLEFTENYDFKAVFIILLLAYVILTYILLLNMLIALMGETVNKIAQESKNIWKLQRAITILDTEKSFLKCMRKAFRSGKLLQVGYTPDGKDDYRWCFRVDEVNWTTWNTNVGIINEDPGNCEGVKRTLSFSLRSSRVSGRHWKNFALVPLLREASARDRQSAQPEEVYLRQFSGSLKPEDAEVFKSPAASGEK
Experimental for TRPV1 receptors: HEK TRPV1 cells were provided by the Helen Turner lab at Chaminade University of Honolulu and maintained in MEM essential medium supplemented with 10% FBS, 50 units/ml-50 μg/ml Penicillin-Streptomycin, and 0.6 mg/ml geneticin.
HEK TRPV1 cells were harvested with trypsin, deactivated with media, and counted. Cells were centrifuged at 1000 rpm, for 5 min, at room temperature. Cells were washed twice with 1 mM Ca Assay Buffer (Na Ringers [140 mM NaCl, 2.8 mM KCl, 2 mM MgCl2, 11 mM glucose, 10 mM HEPES], 2 mM Probenecid, 1 mM CaCl2); pH 7.4), and collected by centrifugation at 1000 rpm, for 5 min, at room temperature. Cells were resuspended in 1 μM Fluo-4 (1 μl of 5 mM Fluo-4, mixed with 1 μl of 20% Pluronic F-127 in DMSO, then 5 ml of 1 mM Ca Assay Buffer was added and the mixture incubated at 37° C. for 10 min in the dark), and incubated for 30 min at 37° C. in the dark. Cells were then washed twice with 1 mM Ca assay buffer, then resuspended in the assay buffer and pipetted to opaque-walled 96-well plates at a density of 150,000 cells/180 μl/well. Fluorescence was measured using a plate reader (Synergy HTX, BioTek, USA), at an excitation wavelength of 485 nm and an emission wavelength of 528 nm. Once a baseline was established (3 measurements), 20 μl of the stimulant (free terpenoids, terpenoids-loaded NPs, and controls) solution was added to each well and measurement was continued for 1 h with one read every 40 seconds.
All solutions were prepared in 1 mM Ca Assay Buffer. Free terpenoids were first dissolved in DMSO, then a specific volume was diluted with the assay buffer to produce the required concentration. […]
A calcium signaling assay was utilized to evaluate the ion influx into HEK TRPV1 cells. Cells were dispersed in 1 mM calcium assay buffer and the intracellular calcium levels were measured using a plate reader in the presence of Fluo-4, as the fluorophore. […] Fluorescence changes in response to the free terpenoids, encapsulated terpenoids, and combinations of free and encapsulated terpenoids were detected and compared.

Regarding `C=CC(C)(O)CCC=C(C)CCC=C(C)C` (stereo not shown) [nerolidol, 3,7,11-Trimethyl-1,6,10-dodecatrien-3-ol], the “Calcium response (fluorescence change), non-encapsulated individual terpenoids” value at TRPV1 receptors is “induced a calcium response”.
Same read-out and setting: the result for `C=C1CC/C=C(\C)CC[C@@H]2[C@@H]1CC2(C)C` [β-caryophyllene, (1R,4E,9S)-4,11,11-Trimethyl-8-methylidenebicyclo[7.2.0]undec-4-ene] reads “lowest calcium responses”.
Regarding `C=CC(=C)CCC=C(C)C` [myrcene, 7-methyl-3-methylideneocta-1,6-diene], the “Calcium response (fluorescence change), non-encapsulated individual terpenoids” value on TRPV1 receptors is given as “most intense response”. For the same compound, in data set [1] (at 25° C.), the Vapor pressure is recorded as 2.09 mm Hg. In addition, the Solubility in water result in data set [1] is listed as “not soluble in water”. The TRPV1 agonist activity result at TRPV1 is listed as “TRPV1 agonist that causes TRPV1 desensitization after prolonged exposure”.
On to `C=CC(=C)CCC=C(C)C` [Formula F42], for which the Weight after lyophilization in data set [2] is given as 0.88 mg.
